In ChEMBL document CHEMBL5131385, “Novel piperazine based benzamide derivatives as potential anti-glioblastoma agents inhibiting cell proliferation and cell cycle progression” (Eur J Med Chem, 2022) one finds IC50, viability and Activity data, which are given here for 27 compounds.

Active and inactive are the calls of the source. No cut-off for these calls is given here.

In general, IC50 refers to the concentration needed to halve the response being measured.

The nature of assay [1]: Antiproliferative activity against human U-87 MG cells assessed as inhibition of cell proliferation measured after 72 hrs by CCK8 assay. The format is functional, cell-based, U-87MG ATCC. (Tetrazolium dyes change colour on reduction, which living cells bring about.)
Assay [2] has as its system U-251. The assay can be described thus: Antiproliferative activity against human U-251 cells assessed as inhibition of cell proliferation measured after 72 hrs by CCK8 assay. The format is functional, cell-based. The conditions noted are these: U-251, 72 h.
A further assay has as its system C6. The assay can be described thus: Antiproliferative activity against rat C6 cells assessed as inhibition of cell proliferation measured after 72 hrs by CCK8 assay. The format is functional, cell-based. The following applies: C6, 72 h.
The nature of assay [3]: Induction of apoptosis in human U-87 MG cells assessed as viable cells at 1.20 uM incubated for 72 hrs by Annexin V-FITC/PI staining based flow cytometry method (reference value: 96.84 %). The format is functional, U-87MG ATCC. The following applies: read-out: Activity. (In general: In flow cytometry, cells or beads pass a laser one at a time.)
Assay [4] is described as follows: Induction of apoptosis in human U-87 MG cells assessed as early apoptotic cells at 1.20 uM incubated for 72 hrs by Annexin V-FITC/PI staining based flow cytometry method (reference value: 2.53 %). The format is functional, U-87MG ATCC. The following applies: dose 1.2 µM.
Assay [5] in a line: Induction of apoptosis in human U-87 MG cells assessed as late apoptotic cells at 1.20 uM incubated for 72 hrs by Annexin V-FITC/PI staining based flow cytometry method (reference value: 0.42 %). The format is functional, U-87MG ATCC. The conditions noted are these: dose 1.2 µM.
Assay [6] can be described thus: Induction of apoptosis in human U-87 MG cells assessed as necrotic cells at 1.20 uM incubated for 72 hrs by Annexin V-FITC/PI staining based flow cytometry method (reference value: 0.21 %). The format is functional, U-87MG ATCC. The following applies: dose 1.2 µM.
Assay [7] relates to U-251. Briefly: Induction of apoptosis in human U-251 cells assessed as viable cells at 6 uM incubated for 72 hrs by Annexin V-FITC/PI staining based flow cytometry method (reference value: 96.22 %). The format is functional. The following applies: read-out: Activity.
The test system of assay [8] is U-251. Briefly: Induction of apoptosis in human U-251 cells assessed as early apoptotic cells at 6 uM incubated for 72 hrs by Annexin V-FITC/PI staining based flow cytometry method (Rvb =1.96 %). The format is functional.
Assay [9] deals with U-251. The assay can be described thus: Induction of apoptosis in human U-251 cells assessed as late apoptotic cells at 6 uM incubated for 72 hrs by Annexin V-FITC/PI staining based flow cytometry method (Rvb =1.31 %). The format is functional.
The subject of assay [10] is U-251. The assay can be described thus: Induction of apoptosis in human U-251 cells assessed as necrotic cells at 6 uM incubated for 72 hrs by Annexin V-FITC/PI staining based flow cytometry method (Rvb =0.51 %). The format is functional.
Assay [11] relates to U-87MG ATCC. The assay can be described thus: Antitumor activity against human U-87 MG cells xenografted in BALB/c mouse assessed as decrease in tumor volume at 10 mg/kg,ip bid for 1 month. The format is functional, organism-based. The conditions noted are these: time 1.0 months.
The subject of assay [12] is U-87MG ATCC. The assay can be described thus: Antitumor activity against human U-87 MG cells xenografted in BALB/c mouse assessed as decrease in tumor weight at 10 mg/kg,ip bid for 1 month. The format is functional, organism-based. The following applies: time 1.0 months. (In general: Xenograft models place foreign cells or tissue in a host animal.)

Turning to `COCCN1CCN(c2ccc(C(F)(F)F)cc2C(=O)Nc2ccc(CNC(=O)OCc3cccnc3)cc2)CC1`, the half-maximal inhibitory concentration (IC50) was 8.58 µM in [1], over 30 µM with U-251 [2] and 13.9 µM in the assay with C6.
`CCN1CCN(c2ccccc2C(=O)Nc2ccc(CNC(=O)OCc3cccnc3)cc2)CC1`: the results for the IC50 (in [1]; with U-251 [2]; with C6) were 0.43 µM, 4.55 µM and 0.36 µM, respectively.
Taken in the same sequence, the figures for `COCCN1CCN(c2ccc(Cl)cc2C(=O)Nc2ccc(CNC(=O)OCc3cccnc3)cc2)CC1` were 1.01 µM, 10.5 µM and 1.76 µM.
For the compound `O=C(NCc1ccc(NC(=O)c2ccccc2N2CCN(CCO)CC2)cc1)OCc1cccnc1`, the figures for the IC50 (in assay [1]; in the assay with U-251 [2]; in the assay on C6) were 0.64 µM, 3.23 µM and 0.29 µM, respectively.
Taken in the same sequence, the figures for `O=C(NCc1ccc(NC(=O)c2ccccc2N2CCN(CC3CC3)CC2)cc1)OCc1cccnc1` were 1.08 µM, 10.6 µM and 0.8 µM.
Turning to `CS(=O)(=O)N1CCN(c2ccccc2C(=O)Nc2ccc(CNC(=O)OCc3cccnc3)cc2)CC1`, the IC50 worked out at 1.02 µM in [1], 5.42 µM in the assay on U-251 [2] and 0.85 µM with C6.
Consider `COCCN1CCN(c2cccc(F)c2C(=O)Nc2ccc(CNC(=O)OCc3cccnc3)cc2)CC1`, for which the IC50 in assay [1] was determined as 4 µM; with U-251 [2], 25 µM; in the assay with C6, 0.79 µM.
As for `COCCN1CCN(c2ccc(C)cc2C(=O)Nc2ccc(CNC(=O)OCc3cccnc3)cc2)CC1`, the half-inhibitory concentration (IC50) in [1] is 1.9 µM; in the assay on U-251 [2], 12.7 µM; in the assay on C6, 1.29 µM.
In the case of `O=C(NCc1ccc(NC(=O)c2ccccc2N2CCN(C3CCC3)CC2)cc1)OCc1cccnc1`, the IC50 was found to be 0.62 µM in [1], 4.05 µM in the assay with U-251 [2] and 1.03 µM in the assay on C6.
Take `CN1CCN(c2ccccc2C(=O)Nc2ccc(CNC(=O)OCc3cccnc3)cc2)CC1`: the half-inhibitory concentration (IC50) was 1.25 µM in [1], 6.25 µM in the assay on U-251 [2] and 0.52 µM in the assay with C6.
The corresponding values for `COCCN1CCN(c2ccc(-c3ccccc3)cc2C(=O)Nc2ccc(CNC(=O)OCc3cccnc3)cc2)CC1` are over 30 µM, over 30 µM and over 30 µM.
On to `O=C(NCc1ccc(NC(=O)c2ccccc2N2CCN(C3COC3)CC2)cc1)OCc1cccnc1`, for which the IC50 is 0.49 µM in assay [1], 2.35 µM in the assay with U-251 [2] and 0.57 µM with C6.
Taken in the same sequence, the figures for `COCCN1CCN(c2ccc(Br)cc2C(=O)Nc2ccc(CNC(=O)OCc3cccnc3)cc2)CC1` were 2.66 µM, 24.7 µM and 2.65 µM.
As to `Cn1nnc2c(C(N)=O)ncn2c1=O` [TEMOZOLOMIDE], the IC50 (in assay [1]; in the assay with U-251 [2]; in the assay with C6) was over 30 µM each time. Further, the viability at 1.2 µM in [3] was determined as 96.2%. Besides, the Activity in assay [4] was 2.5%; in assay [5] it was 0.98%; in assay [6], 0.27%; in the assay on U-251 [8] it was 1.6%; with U-251 [9], 1.73%; in the assay with U-251 [10], 0.49%. Moreover, the viability at 6 µM in the assay on U-251 [7] worked out at 96.2%. For the same compound, the result in the assay on U-87MG ATCC [11] and in the assay with U-87MG ATCC [12] was Active.
Regarding `O=C(NCc1ccc(NC(=O)c2ccccc2N2CCN(CCF)CC2)cc1)OCc1cccnc1`, the figures for the IC50 (in assay [1]; in the assay on U-251 [2]; in the assay on C6) were 0.41 µM, 5.89 µM and 0.46 µM, respectively.
Regarding `COCCN1CCN(c2ccccc2C(=O)Nc2ccc(CNC(=O)OCc3cccnc3)cc2)CC1`, the IC50 came out at 0.4 µM in [1], 3.36 µM with U-251 [2] and 0.24 µM in the assay on C6.
For `COCCN1CCN(c2cc(F)ccc2C(=O)Nc2ccc(CNC(=O)OCc3cccnc3)cc2)CC1`, the figures for the IC50 (in [1]; in the assay with U-251 [2]; in the assay with C6) were 0.53 µM, 2.3 µM and 0.22 µM, respectively.
`COCCN1CCN(c2c(C)cccc2C(=O)Nc2ccc(CNC(=O)OCc3cccnc3)cc2)CC1`: the IC50 worked out at 1.01 µM in assay [1], 9.29 µM in the assay with U-251 [2] and 0.44 µM with C6.
Consider `CC(C)N1CCN(c2ccccc2C(=O)Nc2ccc(CNC(=O)OCc3cccnc3)cc2)CC1`, for which the IC50 in assay [1] was found to be 0.25 µM; with U-251 [2], 6.09 µM; with C6, 0.41 µM.
Take `Nc1ccccc1NC(=O)c1ccc(CNC(=O)OCc2cccnc2)cc1` [ENTINOSTAT]: the IC50 in assay [1] was 4.34 µM; in the assay with U-251 [2] it was over 30 µM; with C6, 0.33 µM.
With `COCCN1CCN(c2ccc(NC(=O)OC(C)(C)C)cc2C(=O)Nc2ccc(CNC(=O)OCc3cccnc3)cc2)CC1`, the IC50 (in assay [1]; in the assay on U-251 [2]; in the assay on C6) was over 30 µM throughout.
Regarding `CCCN1CCN(c2ccccc2C(=O)Nc2ccc(CNC(=O)OCc3cccnc3)cc2)CC1`, the IC50 in assay [1] was found to be 0.42 µM; with U-251 [2], 6.79 µM; with C6 it was 0.36 µM.
Take `COCCN1CCN(c2ccc(OC)cc2C(=O)Nc2ccc(CNC(=O)OCc3cccnc3)cc2)CC1`: the half-inhibitory concentration (IC50) amounted to 3.47 µM in [1], 20.5 µM in the assay with U-251 [2] and 1.05 µM in the assay with C6.
For the compound `O=C(NCc1ccc(NC(=O)c2ccccc2N2CCOCC2)cc1)OCc1cccnc1`, the concentration for half-maximal inhibition (IC50) amounted to 0.89 µM in assay [1], 6.11 µM in the assay with U-251 [2] and 4.82 µM with C6.
Consider `COCCN1CCN(c2cc(C)ccc2C(=O)Nc2ccc(CNC(=O)OCc3cccnc3)cc2)CC1`, for which the IC50 in assay [1] amounted to 0.53 µM; with U-251 [2] it was 2.97 µM; in the assay on C6 it was 0.89 µM.
Regarding `O=C(NCc1ccc(NC(=O)c2ccccc2N2CCN(C3CC3)CC2)cc1)OCc1cccnc1`, the IC50 in [1] came to 1.04 µM; in the assay with U-251 [2], 2.7 µM; with C6, 1.12 µM.
Regarding `COCCN1CCN(c2ccc(N)cc2C(=O)Nc2ccc(CNC(=O)OCc3cccnc3)cc2)CC1`, the IC50 in [1] was determined as 0.56 µM; in the assay with U-251 [2] it was 4 µM; in the assay with C6 it was 0.26 µM.
